{
  "source": "patent US5578570A",
  "about": "“Method of treating septic shock using thymosin β4” (The George Washington University Medical Center, priority 1994, dated 1996)",
  "system": "Rats with Septic Shock",
  "assay": "Survival of Sprague-Dawley rats in septic shock model (peritonitis)",
  "type": "in vivo",
  "conditions": "Table XIV, septic shock + antibiotic (gentamicin sulfate, 1 mg/rat) alone, 10 rats at 0 hr",
  "excerpt": "Using a septic shock model in rats (Sprague-Dawley, male, 200-225 g each), the effect of thymosin β4 alone and together with antibiotics was studied. Peritonitis was induced in rats in the following way. A 1-cm incision was made into the peritoneal which exposed the cecum. A tight ligature was placed around the cecum with 4-0 suture distal to the insertion of the small bowel, forming an area of devitalized tissue while maintaining bowel continuity. A puncture wound was made with 16-gauge needle into the anti-mesenteric surface of the cecum and a small amount of fecal contents was expressed through the wound. The cecum was replaced into the peritoneal cavity, and the anterior peritoneal wall and skin were closed with surgical staples. Each animal was given a bolus of normal saline (15 ml/kg) for hydration and allowed to recover overnight.",
  "data": [
    {"substance": "gentamicin sulfate [antibiotic, reference compound]", "values": [
      {"measurement": "Survival of rats (number alive)", "setting": "24 hr", "value": 1},
      {"measurement": "Survival of rats (number alive)", "setting": "48 hr", "value": 1},
      {"measurement": "Survival of rats (number alive)", "setting": "72 hr", "value": 0}
    ]}
  ]
}
